One data set relates to NR4A2 mRNA. In words: PGE2-induced NR4A2 mRNA in SW1353 cells, qRT-PCR. The format is cell-based, human. The conditions noted are these: PGE2 1 μM, 1 hour. The protocol: (§1) Cell assay: SW1353 human chondrocytes (ATCC) were maintained in RPMI 1640 medium supplemented with 10% Foetal Calf Serum, L-Glutamine and 1% antibiotics. SW1353 cells were seeded 2.5×10^5 cells per well into 6-well plates. After 24 hours media was replaced with serum free media (SFM) and incubated over night. sCT (10 μM) with either PGE2(1 μM) or IL-1β (10 ng/ml) were added to cells in SFM for 1 hour. Dexamethasone (Dex, 10 μM) was the positive control for the down-regulation of NR4A2. Untreated controls were treated in an identical manner, but with serum-free medium alone. RNA was isolated from SW1353 cells.
RNA Extraction: Media was removed from the cells and 1 mL of TRIzol® (Invitrogen) was added to each well. Cells were homogenised by pipetting the added TRIzol® up and down for 8-10 times. […] Pellet was then resuspended in an appropriate volume of RNASE/DNASE free water and RNA in each sample was quantified at A260. […]
Mix to be added to each reaction tube is 4 μL of 5× 1st Strand Buffer, 2 μL of 0.1 M DTT, 1 μL of RNase Out and 1 μL MMLV. […] NR4A and MMP1, 3, 9 and 13 levels were measured by qRT-PCR and expression levels were normalized to GAPDH levels.
SW1353 cells were treated with sCT alone or polymeric nanoparticles comprising hyaluronic acid, chitosan, and sCT and PGE2 for 1 hour. Total RNA was extracted and assayed for NR4A2 mRNA levels by quantitative RT-PCR. […]

In a further data set the test system is MMP 13. Kind of data set: IL-1β-induced MMP 13 mRNA in SW1353 cells, qRT-PCR. Format: cell-based, human. The protocol: as §1
Mix to be added to each reaction tube is 4 μL of 5× 1st Strand Buffer, 2 μL of 0.1 M DTT, 1 μL of RNase Out and 1 μL MMLV. Taq Cat# 10342-020 (this contains 0.1 M DTT, 5× 1st S. B.). NR4A and MMP1, 3, 9 and 13 levels were measured by qRT-PCR and expression levels were normalized to GAPDH levels.
Effects of sCT and the nanoparticle on MMP mRNA levels were also investigated. […] Both sCT, HA, and the polymeric nanoparticle down regulated MMP 13 by 47%, 31% and 88% (FIG. 6B). MMPs 1 and 3 were also down regulated. […] Dexamethasone, which is known to down regulate NR4A2 and is used for the treatment of rheumatoid arthritis, was used as a positive control in all experiments. […]

For another data set, the system named is NR4A2. In words: NR4A2 expression in ankle joints of K/BxN sera-induced mice. The format is in vivo, mouse. The conditions noted are these: intra-peritoneal delivery. An excerpt:
On day 4 after K/BxN serum transfer, mice were sacrificed, and their hind paws above the knee joint were harvested for histology to assess the effects of drug treatments on inflammation and bone and cartilage degradation. The histology sections were stained with hematoxylin and eosin (H&E) and Saffarin O and scored blindly under 3 different categories (i) inflammation (synovitis infiltration and pannus formation), (ii) cartilage erosion and (iii) bone erosion. RNA was also isolated from both the ankle joint and knee joint tissue to measure expression of NR4A biomarkers.
RNA was isolated from the ankle joints of control and ‘inflamed’ K/BxN mice to measure expression of NR4A biomarkers. In K/BxN sera-induced mice with no treatment (therefore showing inflammation), high levels of NR4A1, NR4A2 and NR4A3 were over expressed, compared to naïve mice with no serum transfer (no inflammation (FIG. 20).
Expression of NR4A2 was measured in all groups (FIG. 21). […] Histological sections of the knee joint were scored by an observer blinded to the treatment under 3 different criteria (i) inflammation (synovitis infiltration and pannus formation), (ii) cartilage erosion and (iii) bone erosion on a scale of 0-3 (0, none; 1, minimal invasion of meniscus; 2, partial invasion of meniscus; 3, severe invasion of meniscus). […]

For data set [1] the following is noted: 20° C.; cited from earlier work.

On to salmon calcitonin [sCT], for which, in the data set on NR4A2 mRNA, the “inhibition of PGE2 induced NR4A2 transcript levels” value is 49%. Moreover, in the data set on MMP 13, the “down regulation of MMP 13 mRNA” value stood at 47%. Moreover, in the data set with NR4A2, the “NR4A2 expression in the ankle joints” value is listed as “reduce NR4A2 expression”. In addition, in data set [1], the water solubility result is recorded as “about 1 mg/ml”.

(Values after patent US20170368181A1, “Polymeric Nanoparticle” (The Provost Fellows and Scholars of the College of the Holy …, priority 2010, published 2017).)
